# Numbering of substitutions follows the chain as printed. Names may count otherwise. Where no end group is shown, it is not given here. [ ]: non-standard residue; d: D form. The star is where a group is joined. Biotin = O=C1N[C@H]2[C@H](CS[C@H]2CCCCC(=O)*)N1; Lys(Me3) = C[N+](C)(C)CCCC[C@H](N)C(=O)O; d = 2'-deoxy (DNA)
# B1: CFP-ADNP(701-846): CFP fusion of the ADNP homeodomain alone, containing NLS (protein, UniProt Q9Z103 701-846, looked up, fragment)
# chain: APSRLNQSPGLAPVKRTYEQMEFPLLKKRKLEEDADSPSCFEEKPEEPVVLALDPKGHEDDSYEARKSFLTKYFNKQPYPTRREIEKLAASLWLWKSDIASHFSNKRKKCVRDCEKYKPGVLLGFNMKELNKVKHEMDFDAEWLFE
# modifications: CFP fusion
# notes: CFP fusion of the ADNP homeodomain alone, containing NLS
# B2: K767R: YFP-ADNP fusion protein with K767R mutation in ARKS motif (protein, UniProt Q9Z103 1-1108, looked up, variant K767R)
# Activity-dependent …: MFQLPVNNLGSLRKARKTVKKILSDIGLEYCKEHIEDFKQFEPNDFYLKNTTWEDVGLWDPSLTKNQDYRTKPFCCSACPFSSKFFSAYKSHFRNVHSEDFENRILLNCPYCTFNADKKTLETHIKIFHAPNSSAPSSSLSTFKDKNKNDGLKPKQADNVEQAVYYCKKCTYRDPLYEIVRKHIYREHFQHVAAPYIAKAGEKSLNGAVSLGTNAREECNIHCKRCLFMPKSYEALVQHVIEDHERIGYQVTAMIGHTNVVVPRAKPLMLIAPKPQDKKGMGLPPRISSLASGNVRSLPSQQMVNRLSIPKPNLNSTGVNMMSNVHLQQNNYGVKSVGQSYGVGQSVRLGLGGNAPVSIPQQSQSVKQLLPSGNGRSFGLGAEQRPPAAARYSLQTANTSLPPGQVKSPSVSQSQASRVLGQSSSKPPPAATGPPPSNHCATQKWKICTICNELFPENVYSVHFEKEHKAEKVPAVANYIMKIHNFTSKCLYCNRYLPTDTLLNHMLIHGLSCPYCRSTFNDVEKMAAHMRMVHIDEEMGPKTDSTLSFDLTLQQGSHTNIHLLVTTYNLRDAPAESVAYHAQNNAPVPPKPQPKVQEKADVPVKSSPQAAVPYKKDVGKTLCPLCFSILKGPISDALAHHLRERHQVIQTVHPVEKKLTYKCIHCLGVYTSNMTASTITLHLVHCRGVGKTQNGQDKTNAPSRLNQSPGLAPVKRTYEQMEFPLLKKRKLEEDADSPSCFEEKPEEPVVLALDPKGHEDDSYEARRSFLTKYFNKQPYPTRREIEKLAASLWLWKSDIASHFSNKRKKCVRDCEKYKPGVLLGFNMKELNKVKHEMDFDAEWLFENHDEKDSRVNASKTVDKKHNLGKEDDSFSDSFEHLEEESNGSGSPFDPVFEVEPKIPSDNLEEPVPKVIPEGALESEKLDQKEEEEEEEEEDGSKYETIHLTEEPAKLMHDASDSEVDQDDVVEWKDGASPSESGPGSQQISDFEDNTCEMKPGTWSDESSQSEDARSSKPAAKKKATVQDDTEQLKWKNSSYGKVEGFWSKDQSQWENASENAERLPNPQIEWQNSTIDSEDGEQFDSMTDGVADPMHGSLTGVKLSSQQA
# modifications: YFP fusion
# notes: YFP-ADNP fusion protein with K767R mutation in ARKS motif
# B3: K767R mutant ADNP: FLAG-tagged ADNP, lysine 767 within the ARKS motif changed to arginine (protein, UniProt Q9Z103 1-1108, looked up, variant K767R)
# Activity-dependent …: B2 Activity-dependent …
# modifications: FLAG tag
# notes: FLAG-tagged ADNP, lysine 767 within the ARKS motif changed to arginine
# B4: V821E: YFP-ADNP fusion protein with V821E mutation in PGVLL motif (protein, UniProt Q9Z103 1-1108, looked up, variant V821E)
# Activity-dependent …: B2 Activity-dependent … with R767K, V821E
# modifications: YFP fusion
# notes: YFP-ADNP fusion protein with V821E mutation in PGVLL motif
# Assays:
# H3K27me1 = H3K27me1 levels and distribution after ADNP knockdown; format: cell-based, mouse; conditions: NIH3T3, ADNP knockdown; western blot and immunofluorescence
# major satellite repeats = assay: Major satellite repeat transcripts, real time PCR; format: cell-based, mouse; conditions: ADNP knockdown NIH3T3; relative to GAPDH; vs scrambled siRNA or mock; triplicate
# H4K20me3 = H4K20me3 levels and distribution after ADNP knockdown; format: cell-based, mouse; conditions: NIH3T3, ADNP knockdown; western blot and immunofluorescence
# ADNP [1] = assay: siRNA knockdown, western blot; format: cell-based, mouse; conditions: NIH3T3, vs scrambled siRNA and untransfected (mock)
# H3K9me3 = H3K9me3 levels and distribution after ADNP knockdown; format: cell-based, mouse; conditions: NIH3T3, ADNP knockdown; western blot and immunofluorescence
# HP1α, HP1β and HP1γ = assay: HP1 distribution after ADNP knockdown; format: cell-based, mouse; conditions: NIH3T3, ADNP knockdown; immunofluorescence
# [2] = test system: major satellite repeat sequences; assay: CpG methylation, Southern blot after TaiI digestion; format: cell-based, mouse; conditions: NIH3T3, ADNP knockdown
# HP1 = assay: ADNP peptide pulldown of HeLa S3 nuclear extract, western blot; format: binding
# recombinant HP1β = assay: Fluorescence polarization binding assay; design: species or system human; conditions: fluorescein-labeled peptide, averaged from three independent titration reactions
# FLAG-tagged ADNP = assay: H3 peptide pulldown with TNT-expressed FLAG-tagged ADNP; format: binding; conditions: TNT reticulocyte extract, western blot
# HP1 isoform proteins = format: binding, human
# [3] = test system: three isoforms of HP1, HP1α HP1β and HP1γ, and CDYL1; assay: H3 peptide pulldown of HeLa S3 nuclear extract, MS/MS identification; format: binding; conditions: SDS-PAGE
# ADNP [4] = assay: H3 peptide pulldown of HeLa S3 nuclear extract, western blot; format: binding; conditions: immobilized H3 (aa 1-21) peptides on magnetic beads, monoclonal anti-ADNP
# PxVxL = conditions: ref [27]; cited from earlier work
# Text: (§1) We analyzed this recombinant, mutant HP1βprotein in H3K9me3 peptide pulldown experiments with wild type FLAG-tagged ADNP expressed in TNT reticulocyte extract (Figure 5D). W170A mutation had no effect on HP1β bi ...
# [5] = test system: HP1 dimerization and H3K9me3; conditions: ref [27]; cited from earlier work
# Text: as §1
# [6] = test system: wild type FLAG-tagged ADNP; assay: H3K9me3 peptide pulldown, recruitment of ADNP by mutant HP1β; format: binding; conditions: compared to wild type HP1β; wild type FLAG-tagged ADNP in TNT reticulocyte extract; western blot
# H3K9me3 peptide [7] = assay: H3K9me3 peptide pulldown with mutant HP1β; format: binding; conditions: H3K9me3 peptides on magnetic beads; with ADNP-FLAG; western blot
# [8] = test system: pericentromeric heterochromatin in NIH3T3 cells; assay: Localization of CFP-ADNP constructs in living NIH3T3 cells; format: cell-based, mouse; conditions: transient co-expression with RFP-HP1β; unfixed, living cells of low expression level; confocal
# [9] = test system: pericentromeric heterochromatin in NIH3T3 cells; assay: Localization of YFP-ADNP fusion proteins in living NIH3T3 cells; format: cell-based, mouse; conditions: inducible stable NIH3T3 lines, unfixed; for localization to pericentromeric heterochromatin: Hoechst 33342
# H3K9me3 peptide [10] = format: binding
molecule,measurement,setting,value
"ADNP siRNA: sense 5′ - [GAUUCUUAUGAGGCUAGGA] RNA [TT] DNA, antisense 5′ - [UCCUAGCCUCAUAAGAAUC] RNA [TT] DNA (RNA, 3' dTdT, backbone not given here) [sense 5′ - [GAUUCUUAUGAGGCUAGGA]; RNA [TT]; DNA, antisense 5′ - [UCCUAGCCUCAUAAGAAUC]; DNA]",effects on levels and distribution of H3K27me1,H3K27me1,no effects
same,level of major satellite transcripts,major satellite repeats,elevated
same,effects on levels and distribution of H4K20me3,H4K20me3,no effects
same,ADNP protein levels,ADNP [1],significant reduction
same,effects on levels and distribution of H3K9me3,H3K9me3,no effects
same,"distribution of HP1α, HP1β and HP1γ","HP1α, HP1β and HP1γ",appeared normal
same,reduction of CpG methylation at major satellite repeats,[2],no reduction
"Biotin-EDDSYEAR[Lys(Me3)]SFLTKYFNKQP [ADNPK767me3, methylated ADNP peptide used for pulldown]",HP1 binding,HP1,does not bind
"EDDSYEAR[Lys(Me3)]SFLTKY [ADNPK767me3 (FP peptide), ADNPK767me3 peptide used for FP measurements]",HP1 binding,recombinant HP1β,does not bind
same,HP1 binding,recombinant HP1β; listed as methylated peptide spanning the ADNP ARKS region,did not detect binding
"H3K9me3: H3 (aa 1-21) peptide trimethylated at lysine 9, used for pulldown",binding of ADNP to peptide,FLAG-tagged ADNP; co-incubated with recombinant HP1α,bound specifically to the H3K9me3 peptide
same,binding of ADNP to peptide,FLAG-tagged ADNP; co-incubated with recombinant HP1β,bound specifically to the H3K9me3 peptide
same,binding of ADNP to peptide,FLAG-tagged ADNP; co-incubated with recombinant HP1γ,bound specifically to the H3K9me3 peptide
same,binding of ADNP to peptide,FLAG-tagged ADNP; without HP1,did not bind to any of the differentially loaded beads
same,recruitment of HP1 isoform proteins to peptide,HP1 isoform proteins,concomitant with recruitment of the different HP1 isoform proteins to the H3K9me3 matrix
same,proteins specifically interacting with H3 tail depending on K9me3,[3],several known H3K9me3 interaction partners like the three isoforms of HP1
same,enrichment of ADNP on peptide matrix,ADNP [4],specific enrichment of ADNP exclusively on the H3K9me3 matrix
HP1β W170A: recombinant His6-HP1β with tryptophan 170 mutated to alanine,HP1-PxVxL interaction,PxVxL,abolish HP1-PxVxL interaction
same,HP1 dimerization and H3K9me3 binding,[5],without affecting HP1 dimerization and H3K9me3 binding
same,recruitment of ADNP to H3K9me3 in presence of mutant HP1β,[6],severely impaired
same,HP1β binding to H3K9me3 peptide,H3K9me3 peptide [7],no effect on HP1β binding to the H3K9me3 peptide
B1,localization to pericentromeric heterochromatin,[8],co-localized with HP1β
B2,localization to pericentromeric heterochromatin,[9],no effect on ADNP localization
B3,binding of ADNP protein to H3K9me3 peptide,H3K9me3 peptide [10],bound to H3K9me3 peptide in a HP1β dependent manner
B4,localization to pericentromeric heterochromatin,[9],strong reduction of the ADNP signal at regions of pericentromeric heterochromatin
same,residual signal at pericentromeric heterochromatin,[9]; in all cells analyzed,faint but significant signal

# — paper PMC3022755, “HP1 Recruits Activity-Dependent Neuroprotective Protein to H3K9me3 Marked Pericentromeric Heterochromatin for Silencing of Major Satellite Repeats” (PLoS ONE, 2011)
